Assays:
[1] = test system: Aβ40 in brain of wild-type mice; assay: Lowering of Aβ40 in brain of wild-type mice; format: in vivo; settings: Mus musculus, po; female C57Bl/6J mice, 30 mg/kg per os, 4 h; brain Aβ40 related to the value in the vehicle group; read-out: Aβ40 (wt mice, brain)
Method: Lowering of Aβ40 in Brain of Wild-Type Mice:
Animals and Housing Conditions.
Animals were maintained in a 12/12 h light/dark cycle, with lights starting at 6 a.m., and experiments were conducted during the light phase. Animal housing and experimental procedures were in line with ethical and legal guidelines and were authorized by local veterinary authorities.
Experiment. Female C57Bl/6J mice were treated with a dose of 30 mg/kg of the compounds, 3-4 animals per treatment group. The test compound was dissolved in 5% EtOH, 10% Solutol, and was applied per os at 10 mL/kg. After 4 h, the animals were sacrificed and brain and plasma were collected. The brain was cut into halves and immediately frozen on dry ice. Brain was used for measurement of Aβ40 and plasma was used for determination of compound exposure. […] Brain tissue was homogenized in 2% DEA buffer in a Roche MagnaLyser (20″, 4000 rpm) and subsequently centrifuged for 1 h at 100000 g. DEA was reduced to 0.2% in 50 mM NaCl and one-half of the DEA lysate was passed over an Oasis Solid phase extraction plate (Waters; cat. no. 186000679), which had been activated with MeOH and equilibrated in dH2O (1 mL each). After washes in 10% and 30% MeOH (1 mL each), the Aβ-peptides were eluted in 0.8 mL of 2% NH4OH in 90% MeOH. The eluate was dried over a N2 flow, and the dried sample was reconstituted in 30 μL of AlphaLISA assay buffer. Aβ40 was determined by an AlphaLISA assay (Perkin-Elmer). In a white 96-well, half area microplate (Perkin-Elmer cat. no. 6005561), 20 μL of the reconstituted sample were mixed with 5 μL of biotinylated BAP-24 (specific for C-terminus of Aβ40) (Brockhaus, M.; Grunberg, J.; Rohrig, S.; Loetscher, H.; Wittenburg, N.; Baumeister, R.; Jacobsen, H.; Haass, C. Caspasemediated cleavage is not required for the activity of presenilins in amyloidogenesis and NOTCH signaling. NeuroReport 1998, 9, 1481-1486.) stock=4.4 mg/mL, f.c.5.5 μg/mL), and 5 μL 252Q6 acceptor beads (252Q6 antibody, Invitrogen AMB0062) had been previously conjugated with AlphaLISA Acceptor beads (Perkin-Elmer cat. no. 6772002); final dilution 1:500). The mix was incubated for 1 h at RT in the dark. Then 20 μL of Streptavin-coated Donor Beads (Perkin-Elmer cat. no. 6760002, final dilution 1:125) were added and this final mix was incubated in the dark for another 30 min at RT before RFU was measured in an AlphaScreen Reader (Perkin-Elmer Envision 2104). The value obtained for Aβ40 in the treated animals was related to the value in the vehicle group and is given in %. Alternatively a commercial ELISA was used for Aβ40 determination (Wako ELISA: (“Human/Rat β Amyloid (40) ELISA kit Wako II”; cat nr. 294-64701) following the manufacture's instruction. Also here the Aβ-lowering efficacy was calculated as percentage of the vehicle group.

BACE1 = target: T1, BACE1 (Homo sapiens, UniProt P56817); assay: Cellular Aβ-lowering assay (Abeta 40 AlphaLISA, HEK293 APP cells); format: cell-based; settings: 18-20 hrs incubation, Aβ40 in culture supernatant, read-out: BACE1 cell act. Aβ40 IC50
T1 construct: endogenous in cells; host or cells: HEK293 APP cells
T1 sequence (P56817 46-501): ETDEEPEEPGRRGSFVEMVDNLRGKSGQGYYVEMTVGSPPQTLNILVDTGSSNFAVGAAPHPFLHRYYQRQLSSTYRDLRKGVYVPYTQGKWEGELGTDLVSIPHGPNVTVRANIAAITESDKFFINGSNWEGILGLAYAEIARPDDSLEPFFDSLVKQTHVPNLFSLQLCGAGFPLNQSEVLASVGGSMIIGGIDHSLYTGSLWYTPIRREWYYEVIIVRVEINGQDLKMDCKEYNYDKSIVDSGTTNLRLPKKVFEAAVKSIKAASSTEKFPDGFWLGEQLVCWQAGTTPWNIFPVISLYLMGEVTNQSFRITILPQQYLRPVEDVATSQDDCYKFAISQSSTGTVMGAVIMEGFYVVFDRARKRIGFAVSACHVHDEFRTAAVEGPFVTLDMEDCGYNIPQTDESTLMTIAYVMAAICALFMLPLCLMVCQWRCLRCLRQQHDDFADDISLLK
Method: Cellular Aβ-lowering assay:
The Abeta 40 AlphaLISA Assay can be used. The HEK293 APP cells were seeded in 96 well Microtiter plates in cell culture medium (Iscove's, plus 10% (v/v) fetal bovine serum, penicillin/streptomycin) to about 80% confluency and the compounds were added at a 3× concentration in ⅓ volume of culture medium (final DMSO concentration was kept at 1% v/v). After 18-20 hrs incubation at 37° C. and 5% CO2 in a humidified incubator, the culture supernatants were harvested for the determination of AP 40 concentrations using Perkin-Elmer Human Amyloid beta 1-40 (high specificity) Kit (Cat#AL275C).
In a Perkin-Elmer White Optiplate-384 (Cat#6007290), 2 ul culture supernatants were combined with 2 μl of a 10× AlphaLISA Anti-hAβ Acceptor beads+Biotinylated Antibody Anti-Aβ 1-40 Mix ([…]/5 nM). After 1 hour room temperature incubation, 16 μl of a 1.25× preparation of Streptavidin (SA) Donor beads (25 μg/mL) were added and incubated for 30 minutes in the Dark. Light Emission at 615 nm was then recorded using EnVision-Alpha Reader. Levels of Aβ 40 in the culture supernatants were calculated as percentage of maximum signal (cells treated with 1% DMSO without inhibitor). The IC50 values were calculated using the Excel XLfit software.

SMILES	response vs control in vivo at 30 mg/kg [1] [%]	IC50 (BACE1) [nM]
COc1cnc(C(=O)Nc2ccc(F)c([C@@]3(C)N=C(N)C(C)(C)[S@@]4(=O)=NCCC[C@@H]34)n2)cn1 [Example 2AB, N-(6-((4aS,5R,9R)-7-amino-5,8,8-trimethyl-9-oxido-2,3,4,4a,5,8-hexahydro-[1,4]thiazino[2,1-f][1,2]thiazin-5-yl)-5-fluoropyridin-2-yl)-5-methoxypyrazine-2-carboxamide]	92	18.7
CC1(C)C(N)=N[C@](C)(c2nc(NC(=O)c3cnc(OC(F)F)cn3)ccc2F)[C@@H]2CCN=[S@@]21=O [Example 26AB, N-(6-((3aS,4R,8R)-6-amino-4,7,7-trimethyl-8-oxido-3,3a,4,7-tetrahydro-2H-isothiazolo[1,5-a][1,4]thiazin-4-yl)-5-fluoropyridin-2-yl)-5-(difluoromethoxy)pyrazine-2-carboxamide]	82	7.7
CC1(C)C(N)=N[C@](C)(c2nc(NC(=O)c3ccc(C#N)cn3)ccc2F)[C@H]2CC(F)(F)CN=[S@@]21=O [Example 34AA, N-(6-((4aR,5R,9R)-7-amino-3,3-difluoro-5,8,8-trimethyl-9-oxido-2,3,4,4a,5,8-hexahydro-[1,4]thiazino[2,1-f][1,2]thiazin-5-yl)-5-fluoropyridin-2-yl)-5-cyanopicolinamide]	113	9.8
CC1(C)C(N)=N[C@](C)(c2nc(NC(=O)c3ccc(OCC(F)(F)C(F)F)cn3)ccc2F)[C@H]2CC(F)(F)CN=[S@@]21=O [Example 36AA, N-(6-((4aR,5R,9R)-7-amino-3,3-difluoro-5,8,8-trimethyl-9-oxido-2,3,4,4a,5,8-hexahydro-[1,4]thiazino[2,1-f][1,2]thiazin-5-yl)-5-fluoropyridin-2-yl)-5-(2,2,3,3-tetrafluoropropoxy)-picolinamide]	84	416
Cc1cc(F)cnc1C(=O)Nc1ccc(F)c([C@@]2(C)N=C(N)C(C)(C)[S@@]3(=O)=NCCC[C@H]23)n1 [Example 4AA, N-(6-((4aR,5R,9R)-7-amino-5,8,8-trimethyl-9-oxido-2,3,4,4a,5,8-hexahydro-[1,4]thiazino[2,1-f][1,2]thiazin-5-yl)-5-fluoropyridin-2-yl)-5-fluoro-3-methylpicolinamide]	80	18.1
Cc1cc(C#N)cnc1C(=O)Nc1ccc(F)c([C@@]2(C)N=C(N)C(C)(C)[S@]3(=O)=NCCC[C@H]23)n1 [Example 1BA, N-(6-((4aR,5R,9S)-7-amino-5,8,8-trimethyl-9-oxido-2,3,4,4a,5,8-hexahydro-[1,4]thiazino[2,1-f][1,2]thiazin-5-yl)-5-fluoropyridin-2-yl)-5-cyano-3-methylpicolinamide]	95	0.5
CC1(C)C(N)=N[C@](C)(c2nc(NC(=O)c3ccc(OC(F)F)cn3)ccc2F)[C@@H]2CCN=[S@@]21=O [Example 14AB, N-(6-((3aS,4R,8R)-6-amino-4,7,7-trimethyl-8-oxido-3,3a,4,7-tetrahydro-2H-isothiazolo[1,5-a][1,4]thiazin-4-yl)-5-fluoropyridin-2-yl)-5-(difluoromethoxy)picolinamide]	61	6.3
CC1(C)C(N)=N[C@](C)(c2nc(NC(=O)c3ncc(F)cc3Cl)ccc2F)[C@H]2CC(F)(F)CN=[S@@]21=O [Example 41AA, N-(6-((4aR,5R,9R)-7-amino-3,3-difluoro-5,8,8-trimethyl-9-oxido-2,3,4,4a,5,8-hexahydro-[1,4]thiazino[2,1-f][1,2]thiazin-5-yl)-5-fluoropyridin-2-yl)-3-chloro-5-fluoropicolinamide]	78	30.4
CC1(C)C(N)=N[C@](C)(c2nc(NC(=O)c3ccc(F)cn3)ccc2F)[C@@H]2CCN=[S@@]21=O [Example 27AB, N-(6-((3aS,4R,8R)-6-amino-4,7,7-trimethyl-8-oxido-3,3a,4,7-tetrahydro-2H-isothiazolo[1,5-a][1,4]thiazin-4-yl)-5-fluoropyridin-2-yl)-5-fluoropicolinamide]	92	15
CC1(C)C(N)=N[C@](C)(c2nc(NC(=O)c3ncc(OC(F)F)cc3Cl)ccc2F)[C@@H]2CCN=[S@@]21=O [Example 28AB, N-(6-((3aS,4R,8R)-6-amino-4,7,7-trimethyl-8-oxido-3,3a,4,7-tetrahydro-2H-isothiazolo[1,5-a][1,4]thiazin-4-yl)-5-fluoropyridin-2-yl)-3-chloro-5-(difluoromethoxy)picolinamide]	100	2.8
CC1(C)C(N)=N[C@](C)(c2nc(NC(=O)c3ncc(C#N)cc3Cl)ccc2F)[C@H]2CC3(CC3)CN=[S@@]21=O [Example 49AA, N-(6-((4aR,5R,9R)-7-amino-5,8,8-trimethyl-9-oxido-4,4a,5,8-tetrahydro-2H-spiro[[1,4]-thiazino[2,1-f][1,2]thiazine-3,1′-cyclopropan]-5-yl)-5-fluoropyridin-2-yl)-3-chloro-5-cyanopicolinamide]	106	0.1
CC1(C)C(N)=N[C@](C)(c2nc(NC(=O)c3ncc(OC(F)F)cc3Cl)ccc2F)[C@H]2CC(F)(F)CN=[S@@]21=O [Example 45AA, N-(6-((4aR,5R,9R)-7-amino-3,3-difluoro-5,8,8-trimethyl-9-oxido-2,3,4,4a,5,8-hexahydro-[1,4]thiazino[2,1-f][1,2]thiazin-5-yl)-5-fluoropyridin-2-yl)-3-chloro-5-(difluoromethoxy)-picolinamide]	85	26.6
Cc1cc(Cl)cnc1C(=O)Nc1ccc(F)c([C@@]2(C)N=C(N)C(C)(C)[S@@]3(=O)=NCC[C@@H]23)n1 [Example 12AB, N-(6-((3aS,4R,8R)-6-amino-4,7,7-trimethyl-8-oxido-3,3a,4,7-tetrahydro-2H-isothiazolo[1,5-a][1,4]thiazin-4-yl)-5-fluoropyridin-2-yl)-5-chloro-3-methylpicolinamide]	38	1.3
CC1(C)C(N)=N[C@](C)(c2nc(NC(=O)c3ncc(Cl)cc3Cl)ccc2F)[C@@H]2CCN=[S@@]21=O [Example 29AB, N-(6-((3aS,4R,8R)-6-amino-4,7,7-trimethyl-8-oxido-3,3a,4,7-tetrahydro-2H-isothiazolo[1,5-a][1,4]thiazin-4-yl)-5-fluoropyridin-2-yl)-3,5-dichloropicolinamide]	88	0.6
Cc1cc(C#N)cnc1C(=O)Nc1ccc(F)c([C@@]2(C)N=C(N)C(C)(C)[S@]3(=O)=NCCC[C@@H]23)n1 [Example 1BB, N-(6-((4aS,5R,9S)-7-amino-5,8,8-trimethyl-9-oxido-2,3,4,4a,5,8-hexahydro-[1,4]thiazino[2,1-f][1,2]thiazin-5-yl)-5-fluoropyridin-2-yl)-5-cyano-3-methylpicolinamide]	93	3.9

— patent US9540397B2, “BACE1 inhibitors” (Hoffmann-La Roche Inc., priority 2014, dated 2017)
